These results are taken from PubChem BioAssay AID248 (DTP/NCI, 2004).

This test relates to L1210 leukemia ip in BDF1 mice, survival T/C. The experiment in a line: NCI In Vivo Anticancer Drug Screen. Data for tumor model L1210 Leukemia (intraperitoneal) in B6D2F1 (BDF1) mice. Particulars: endpoint: mean survival time, higher = longer survival. An outline of the steps: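 Transplanted-tumor mice were given test agent; controls received vehicle only. Survival readings from the two groups were divided (treated over control).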

[1] abbreviates: dose: 100.0 mg/kg/injection, schedule: Q04DX002 (ip), vehicle: Klucel (hydroxypropylcellulose) (HPC).
The mark [2] stands for this setting: dose: 200.0 mg/kg/injection, schedule: Q04DX002 (ip), vehicle: Klucel (hydroxypropylcellulose) (HPC).
The mark [3] stands for this setting: dose: 75.0 mg/kg/injection, schedule: Q01DX001 (ip), vehicle: other.
Where [4] appears, read: dose: 150.0 mg/kg/injection, schedule: Q01DX001 (ip), vehicle: other.
The mark [5] stands for this setting: dose: 300.0 mg/kg/injection, schedule: Q01DX001 (ip), vehicle: other.
Setting [6] is: dose: 100.0 mg/kg/injection, schedule: Q01DX001 (ip), vehicle: saline.
The mark [7] stands for this setting: dose: 200.0 mg/kg/injection, schedule: Q01DX001 (ip), vehicle: saline.
Where [8] appears, read: dose: 400.0 mg/kg/injection, schedule: Q01DX001 (ip), vehicle: saline.

Structures are written as SMILES. Values joined by “and” are separate entries in the source; they are usually repeats but may differ in a detail not shown here. Equal values may be shown once. Toxic doses and inconclusive results are not listed.

`CCCC(=O)NC1CCC(CC2CCCCC2)CC1` (stereo not given): the T/C (dose: 50.0 mg/kg/injection, schedule: Q01DX009 (ip), vehicle: other) is 92 % of control; the T/C (dose: 100.0 mg/kg/injection, schedule: Q01DX009 (ip), vehicle: other) was 106 % of control; the T/C (dose: 100.0 mg/kg/injection, schedule: Q04DX003 (ip), vehicle: other) is 100 % of control; the T/C (dose: 200.0 mg/kg/injection, schedule: Q01DX009 (ip), vehicle: other) was 98 % of control; the T/C (dose: 200.0 mg/kg/injection, schedule: Q04DX003 (ip), vehicle: other) was 100 % of control.
Turning to `O=C(O)C1CC(Br)C(Br)CC1C(=O)Nc1cccc2ccccc12` (stereo not given), the T/C under setting [1] is 100 % of control; the T/C under setting [2] is 92 % of control; the T/C (dose: 400.0 mg/kg/injection, schedule: Q04DX002 (ip), vehicle: Klucel (hydroxypropylcellulose) (HPC)) was 95 % of control.
`CC(=O)OC1CCC2(C)C(CCC3C4CCC(C(C)OC(C)=O)C4NC(=O)CC32)C1` (stereo not given): the T/C under setting [3] was 104 % of control, the T/C under setting [4] was 101 % of control and the T/C under setting [5] was 93 % of control.
Regarding `COc1ccc(CC2=NCCc3cc(OC)c(OC)cc32)cc1OC`, the T/C was 97 % of control (dose: 75.0 mg/kg/injection, schedule: Q01DX001 (ip), vehicle: saline); 96 % of control and 90 % of control (dose: 100.0 mg/kg/injection, schedule: Q01DX009 (ip), vehicle: saline); 110 % of control and 89 % of control (dose: 100.0 mg/kg/injection, schedule: Q04DX003 (ip), vehicle: saline); 100 % of control (dose: 150.0 mg/kg/injection, schedule: Q01DX001 (ip), vehicle: saline).
Regarding `CCOC(=O)C1=C(C)N(Cc2ccccc2)C(C)=C(C(=O)OCC)C1(C)C`, the T/C reads like this: (dose: 100.0 mg/kg/injection, schedule: Q04DX003 (ip), vehicle: saline with Tween-80) 101 % of control; (dose: 200.0 mg/kg/injection, schedule: Q04DX003 (ip), vehicle: saline with Tween-80) 98 % of control; (dose: 400.0 mg/kg/injection, schedule: Q04DX003 (ip), vehicle: saline with Tween-80) 106 % of control.
With `Cn1nnc(CCCl)n1`, the T/C is 110 % of control under setting [6], 91 % of control under setting [7] and 95 % of control under setting [8].
The matching figures for `CC1CCCC1C(=Nc1ccc(Cl)c(Cl)c1)N1CCCCC1` (stereo not given): 105 % of control, 100 % of control and 102 % of control.
Take `O=[N+]([O-])c1cc(Br)cc2c1nc(Cl)c1ccccc12`: the T/C (dose: 100.0 mg/kg/injection, schedule: Q04DX003 (ip), vehicle: Klucel (hydroxypropylcellulose) (HPC)) is 98 % of control; the T/C (dose: 200.0 mg/kg/injection, schedule: Q04DX003 (ip), vehicle: Klucel (hydroxypropylcellulose) (HPC)) was 101 % of control; the T/C (dose: 400.0 mg/kg/injection, schedule: Q04DX003 (ip), vehicle: Klucel (hydroxypropylcellulose) (HPC)) was 98 % of control.
For `COc1cc(C=C(C#N)C#N)ccc1OC(=O)c1cc(OC)c(OC)c(OC)c1`, the T/C is 98 % of control (dose: 100.0 mg/kg/injection, schedule: Q04DX002 (ip), vehicle: gum acacia); 92 % of control (dose: 200.0 mg/kg/injection, schedule: Q04DX002 (ip), vehicle: gum acacia); 92 % of control (dose: 400.0 mg/kg/injection, schedule: Q04DX002 (ip), vehicle: gum acacia).
Take `CO/C=C(\C)C(=O)NC(=O)NC1CCC(CO)C1` (stereo not given): the T/C is 96 % of control (dose: 100.0 mg/kg/injection, schedule: Q01DX001 (ip), vehicle: other); 107 % of control (dose: 200.0 mg/kg/injection, schedule: Q01DX001 (ip), vehicle: other); 98 % of control (dose: 400.0 mg/kg/injection, schedule: Q01DX001 (ip), vehicle: other).
In the case of `C(=N\Nc1nnc(N/N=C/c2cccc(OCc3ccccc3)c2)c2ccccc12)/c1cccc(OCc2ccccc2)c1`, the T/C reads like this: (dose: 50.0 mg/kg/injection, schedule: Q01DX001 (ip), vehicle: saline) 101 % of control; under setting [6], 95 % of control; under setting [7], 92 % of control; under setting [8], 97 % of control.
Turning to `NC(Cc1ccccc1Cl)C(=O)O` (stereo not given), the T/C (dose: 50.0 mg/kg/injection, schedule: Q01DX009 (ip), vehicle: Klucel (hydroxypropylcellulose) (HPC)) is 102 % of control; the T/C (dose: 75.0 mg/kg/injection, schedule: Q01DX001 (ip), vehicle: Klucel (hydroxypropylcellulose) (HPC)) was 86 % of control; the T/C (dose: 100.0 mg/kg/injection, schedule: Q01DX009 (ip), vehicle: Klucel (hydroxypropylcellulose) (HPC)) was 102 % of control; the T/C (dose: 150.0 mg/kg/injection, schedule: Q01DX001 (ip), vehicle: Klucel (hydroxypropylcellulose) (HPC)) was 99 % of control; the T/C (dose: 200.0 mg/kg/injection, schedule: Q01DX009 (ip), vehicle: Klucel (hydroxypropylcellulose) (HPC)) was 102 % of control; the T/C (dose: 300.0 mg/kg/injection, schedule: Q01DX001 (ip), vehicle: Klucel (hydroxypropylcellulose) (HPC)) was 96 % of control.
Take `OCCN1CCN(CCCN2c3ccccc3Oc3ccc(C(F)(F)F)cc32)CC1`: the T/C (dose: 25.0 mg/kg/injection, schedule: Q04DX003 (ip), vehicle: saline) was 92 % of control and the T/C (dose: 50.0 mg/kg/injection, schedule: Q04DX003 (ip), vehicle: saline) was 106 % of control.
On to `Cc1ccc(NC(=S)NNC(=S)NNc2ccccc2)cc1`, for which the T/C by setting is: under setting [1], 86 % of control; under setting [2], 94 % of control.
With `CC(=O)c1ccc2[nH]c(C)cc(=O)c2c1`, the T/C under setting [6] is 94 % of control, the T/C under setting [7] is 107 % of control and the T/C under setting [8] was 96 % of control.
In the case of `CCCCN(C)/N=N/c1nc[nH]c1C#N`, the T/C is, setting by setting: under setting [3], 105 % of control; (dose: 75.0 mg/kg/injection, schedule: Q01DX009 (ip), vehicle: saline with Tween-80) 103 % of control; (dose: 75.0 mg/kg/injection, schedule: Q04DX003 (ip), vehicle: saline with Tween-80) 105 % of control; under setting [4], 102 % of control; (dose: 150.0 mg/kg/injection, schedule: Q01DX009 (ip), vehicle: saline with Tween-80) 105 % of control; (dose: 150.0 mg/kg/injection, schedule: Q04DX003 (ip), vehicle: saline with Tween-80) 96 % of control. For the same molecule, the T/C runs as follows: under setting [5], 101 % of control; (dose: 300.0 mg/kg/injection, schedule: Q01DX009 (ip), vehicle: saline with Tween-80) 109 % of control; (dose: 300.0 mg/kg/injection, schedule: Q04DX003 (ip), vehicle: saline with Tween-80) 96 % of control.
With `COC1C(NC(=O)N(CCCl)N=O)C(OC(C)=O)OC(COC(C)=O)C1OC(C)=O` (stereo not given), the T/C is 118 % of control (dose: 1.8 mg/kg/injection, schedule: Q01DX001 (ip), vehicle: saline with Tween-80); 181 % of control (dose: 2.6 mg/kg/injection, schedule: Q01DX001 (ip), vehicle: saline with Tween-80); 154 % of control (dose: 4.0 mg/kg/injection, schedule: Q01DX001 (ip), vehicle: saline with Tween-80); 259 % of control [middle of 4 runs] (dose: 6.0 mg/kg/injection, schedule: Q01DX001 (ip), vehicle: saline with Tween-80); 283 % of control and 162 % of control (dose: 9.0 mg/kg/injection, schedule: Q01DX001 (ip), vehicle: saline with Tween-80); 333 % of control and 232 % of control (dose: 13.0 mg/kg/injection, schedule: Q01DX001 (ip), vehicle: saline with Tween-80). Further, the T/C runs as follows: (dose: 20.0 mg/kg/injection, schedule: Q01DX001 (ip), vehicle: saline with Tween-80) 155 % of control and 154 % of control; (dose: 30.0 mg/kg/injection, schedule: Q01DX001 (ip), vehicle: saline with Tween-80) 86 % of control.
Regarding `CC(C)(C)CNC(C)(C)C`, the T/C is, setting by setting: (dose: 5.0 mg/kg/injection, schedule: Q01DX001 (ip), vehicle: saline) 109 % of control; (dose: 10.0 mg/kg/injection, schedule: Q01DX001 (ip), vehicle: saline) 103 % of control; (dose: 20.0 mg/kg/injection, schedule: Q01DX001 (ip), vehicle: saline) 100 % of control; (dose: 40.0 mg/kg/injection, schedule: Q01DX001 (ip), vehicle: saline) 103 % of control; (dose: 50.0 mg/kg/injection, schedule: Q04DX002 (ip), vehicle: saline) 112 % of control; (dose: 80.0 mg/kg/injection, schedule: Q01DX001 (ip), vehicle: saline) 105 % of control. Moreover, the T/C runs as follows: (dose: 100.0 mg/kg/injection, schedule: Q04DX002 (ip), vehicle: saline) 104 % of control; (dose: 200.0 mg/kg/injection, schedule: Q04DX002 (ip), vehicle: saline) 95 % of control.
